Our source for the EC50 values is patent US20230295201A1 (Gilead Sciences, Inc., priority 2020, published 2023).

Like-named read-outs stand apart in the source and are kept apart here. Some results are limits rather than exact numbers.

Type in all cases: cell-based
One assay concerns DENV2 replicon. Kind of assay: DENV-2 Huh-7 Rep EC50 (replicon luminescence). Conditions: read-out: DENV-2 Huh-7 Rep EC50. The essentials: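 EC50 derived from luminescence dose-response, normalised to DMSO-only 0% inhibition wells, after 1.5 h with EnduRen substrate. Compounds were first exposed for 48 h at 37° C to DENV2 replicon Huh-7 cells (5,000/well).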
On the technique in general: A replicon is a self-replicating genome or part of one, used to study replication in cells.

The test system of another assay is RSV A2. Kind of assay: RSV NHBE EC50 (RSV A2 antiviral assay in normal human bronchial epithelial cells). Conditions: NHBE cells, RSV A2, 4 days, read-out: RSV NHBE EC50.
A further assay concerns RSV strain A2. Kind of assay: RSV HEp-2 EC50 (infectious cytopathic cell protection assay). The settings on record: HEp-2 cells, RSV A2, 4 days, read-out: RSV HEp-2 EC50. The method in brief: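 Percent inhibition of RSV-induced cytopathic effect came from remaining cell viability (CellTiter-Glo luminescence) after 4 days at 37° C. Compounds in 3-fold serial dilutions were exposed to an infectious mix of titered A2 virus and HEp-2 cells at 50,000/ml, with 0% and 100% inhibition control standards.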
A general note: Protection from cytopathic effect is a common read-out in antiviral testing.

For another assay, the system named is HRV16. Kind of assay: HRV16 HELA EC50 (cytopathic effect in H1-HeLa cells). The essentials: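 Read-out is luminescent cell viability (CellTiter-Glo) after 96 h of infection at 33 °C, scaled between uninfected and infected-untreated wells. Before infection with titrated virus, compounds went onto H1-HeLa cells as triplicate 3-fold dilution series.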
The mark [1] stands for this setting: Dengue virus, DENV2, Huh-7, 48 h, Huh-7 replicon cells, 48 hours.
Where [2] appears, read: human respiratory syncytial virus, NHBE, 96 h.
Where [3] appears, read: human respiratory syncytial virus, HEp-2, 96 h.
Setting [4] is: 96 h, H1-HeLa cells, 33° C., read-out: HRV16 HELA EC50.
Where [5] appears, read: H1-HeLa cells, 96 h, 33° C.; read-out: HRV16 HELA EC50.

A word on the EC50: it is the concentration that produces a half-maximal response. As to `C[C@H](NP(=O)(OC[C@@]1(C#N)O[C@@H](c2ccc3c(N)ncnn23)[C@H](O)[C@@H]1O)Oc1ccccc1)C(=O)O[C@H]1CC[C@H](C(F)(F)F)CC1` (stereo partly drawn) [Example 16, trans-4-(trifluoromethyl)cyclohexyl ((((2R,3S,4R,5S)-5-(4-aminopyrrolo[2,1-f][1,2,4]triazin-7-yl)-2-cyano-3,4-dihydroxytetrahydrofuran-2-yl)methoxy)(phenoxy)phosphoryl)-L-alaninate], the EC50 in the assay on DENV2 replicon (setting [1]) turned out to be 70.8 µM; in the assay on RSV A2 (setting [2]), 0.104 µM; in the assay on RSV strain A2 (setting [3]), 1.29 µM; in the assay on HRV16 (setting [4]) it was 1.31 µM.
For `CCCOC(=O)[C@H](C)N[P@](=O)(OC[C@@]1(C#N)O[C@@H](c2ccc3c(N)ncnn23)[C@H](O)[C@@H]1O)Oc1ccccc1` [Example 45, propyl ((S)-(((2R,3S,4R,5S)-5-(4-aminopyrrolo[2,1-f][1,2,4]triazin-7-yl)-2-cyano-3,4-dihydroxytetrahydrofuran-2-yl)methoxy)(phenoxy)phosphoryl)-L-alaninate], the EC50 in the assay with DENV2 replicon (setting [1]) was found to be 9.66 µM; with RSV A2 (setting [2]), 0.248 µM; with RSV strain A2 (setting [3]) it was 0.055 µM; in the assay with HRV16 (setting [4]), 0.375 µM.
Regarding `CC(C)(CO)C(=O)OCCNP(=O)(OC[C@@]1(C#N)O[C@@H](c2ccc3c(N)ncnn23)[C@H](O)[C@@H]1O)Oc1ccccc1` (stereo partly drawn) [Example 126, 2-(((((2R,3S,4R,5S)-5-(4-aminopyrrolo[2,1-f][1,2,4]triazin-7-yl)-2-cyano-3,4-dihydroxytetrahydrofuran-2-yl)methoxy)(phenoxy)phosphoryl)amino)ethyl 3-hydroxy-2,2-dimethylpropanoate], the EC50 was above 50 µM in the assay with DENV2 replicon (setting [1]), 1.79 µM with RSV A2 (setting [2]), 6.56 µM with RSV strain A2 (setting [3]) and 27.9 µM in the assay with HRV16 (setting [4]).
As for `CCOC(=O)[C@H](CC)NP(=O)(OC[C@@]1(C#N)O[C@@H](c2ccc3c(N)ncnn23)[C@H](O)[C@@H]1O)Oc1ccccc1` (stereo partly drawn) [Example 97, (2S)-ethyl 2-(((((2R,3S,4R,5S)-5-(4-aminopyrrolo[2,1-f][1,2,4]triazin-7-yl)-2-cyano-3,4-dihydroxytetrahydrofuran-2-yl)methoxy)(phenoxy)phosphoryl)amino)butanoate], the EC50 with DENV2 replicon (setting [1]) was above 100 µM; in the assay on RSV A2 (setting [2]), 1.37 µM; in the assay with RSV strain A2 (setting [3]), 0.537 µM; with HRV16 (setting [4]), 4.42 µM.
As to `CC(C)OC(=O)C1(NP(=O)(OC[C@@]2(C#N)O[C@@H](c3ccc4c(N)ncnn34)[C@H](O)[C@@H]2O)Oc2ccccc2)CCC1` (mixture of isomers) [Example 95, isopropyl 1-(((((2R,3S,4R,5S)-5-(4-aminopyrrolo[2,1-f][1,2,4]triazin-7-yl)-2-cyano-3,4-dihydroxytetrahydrofuran-2-yl)methoxy)(phenoxy)phosphoryl)amino)cyclobutanecarboxylate], the EC50 is above 50 µM in the assay with DENV2 replicon (setting [1]), above 5 µM with RSV A2 (setting [2]), 15.2 µM in the assay with RSV strain A2 (setting [3]) and above 42.2 µM with HRV16 (setting [4]).
As to `C[C@H](NP(=O)(OC[C@@]1(C#N)O[C@@H](c2ccc3c(N)ncnn23)[C@H](O)[C@@H]1O)Oc1ccccc1)C(=O)O[C@H]1CCNC1` (stereo partly drawn) [Example 122, (2S)—(S)-pyrrolidin-3-yl 2-(((((2R,3S,4R,5S)-5-(4-aminopyrrolo[2,1-f][1,2,4]triazin-7-yl)-2-cyano-3,4-dihydroxytetrahydrofuran-2-yl)methoxy)(phenoxy)phosphoryl)amino)propanoate], the EC50 was above 50 µM with DENV2 replicon (setting [1]), above 5 µM in the assay on RSV A2 (setting [2]), 4.04 µM in the assay on RSV strain A2 (setting [3]) and 29.3 µM in the assay with HRV16 (setting [4]).
For `CC(C)COC(=O)OCCNP(=O)(OC[C@@]1(C#N)O[C@@H](c2ccc3c(N)ncnn23)[C@H](O)[C@@H]1O)Oc1ccccc1` (stereo partly drawn) [Example 177, 2-(((((2R,3S,4R,5S)-5-(4-aminopyrrolo[2,1-f][1,2,4]triazin-7-yl)-2-cyano-3,4-dihydroxytetrahydrofuran-2-yl)methoxy)(phenoxy)phosphoryl)amino)ethyl isobutyl carbonate], the concentration giving a half-maximal response (EC50) in the assay with DENV2 replicon (setting [1]) is above 50 µM; in the assay on RSV A2 (setting [2]), 1.56 µM; with RSV strain A2 (setting [3]), 0.104 µM; in the assay with HRV16 (setting [4]), 1.16 µM.
For the compound `COC1CCC(OC(=O)[C@H](C)NP(=O)(OC[C@@]2(C#N)O[C@@H](c3ccc4c(N)ncnn34)[C@H](O)[C@@H]2O)Oc2ccccc2)CC1` (stereo partly drawn) [Example 165, 4-methoxycyclohexyl ((((2R,3S,4R,5S)-5-(4-aminopyrrolo[2,1-f][1,2,4]triazin-7-yl)-2-cyano-3,4-dihydroxytetrahydrofuran-2-yl)methoxy)(phenoxy)phosphoryl)alaninate], the EC50 in the assay with DENV2 replicon (setting [1]) is above 100 µM; in the assay with RSV A2 (setting [2]) it was 1.61 µM; in the assay on RSV strain A2 (setting [3]), 1.94 µM; with HRV16 (setting [4]), 11.3 µM.
Turning to `CC(C)(C)C(=O)OCCNP(=O)(NCCOC(=O)C(C)(C)C)OC[C@@]1(C#N)O[C@@H](c2ccc3c(N)ncnn23)[C@H](O)[C@@H]1O` [Example 208], the half-maximal effective concentration (EC50) in the assay with DENV2 replicon (Dengue virus, DENV2, Huh-7, 48 h) was above 50 µM; with RSV A2 (setting [2]), above 4.22 µM; in the assay on RSV strain A2 (setting [3]) it was above 32.8 µM; in the assay with HRV16 (setting [4]), above 50 µM.
As for `CCC(CC)COC(=O)[C@H](Cc1ccccc1)NP(=O)(OC[C@@]1(C#N)O[C@@H](c2ccc3c(N)ncnn23)[C@H](O)[C@@H]1O)Oc1ccccc1` (stereo partly drawn) [Example 81, (2S)-2-ethylbutyl 2-(((((2R,3S,4R,5S)-5-(4-aminopyrrolo[2,1-f][1,2,4]triazin-7-yl)-2-cyano-3,4-dihydroxytetrahydrofuran-2-yl)methoxy)(phenoxy)phosphoryl)amino)-3-phenylpropanoate], the EC50 in the assay with DENV2 replicon (setting [1]) came out at 38.9 µM; in the assay on RSV A2 (setting [2]), 2.65 µM; in the assay on RSV strain A2 (setting [3]), 3.57 µM; with HRV16 (setting [4]), 3.37 µM.
With `COCCOc1ccc(OP(=O)(N[C@@H](C)C(=O)OC(C)C)OC[C@@]2(C#N)O[C@@H](c3ccc4c(N)ncnn34)[C@H](O)[C@@H]2O)cc1` (some centres unmarked) [Example 53], the EC50 in the assay on DENV2 replicon (setting [1]) is above 50 µM; in the assay on RSV A2 (human respiratory syncytial virus, NHBE, in Homo sapiens, 96 h), at least 5 µM; in the assay with RSV strain A2 (setting [3]), 2.36 µM; in the assay with HRV16 (setting [4]) it was 15.5 µM.
With `CCOC(=O)C1(NP(=O)(OC[C@@]2(C#N)O[C@@H](c3ccc4c(N)ncnn34)[C@H](O)[C@@H]2O)Oc2ccccc2)CC1` (mixture of isomers) [Example 106, ethyl 1-(((((2R,3S,4R,5S)-5-(4-aminopyrrolo[2,1-f][1,2,4]triazin-7-yl)-2-cyano-3,4-dihydroxytetrahydrofuran-2-yl)methoxy)(phenoxy)phosphoryl)amino)cyclopropanecarboxylate], the EC50 with DENV2 replicon (setting [1]) is above 100 µM; with RSV A2 (setting [2]), above 5 µM; with RSV strain A2 (setting [3]) it was above 42.5 µM; in the assay on HRV16 (setting [4]), above 100 µM.
With `CCCCOC(=O)CC[C@H](NP(=O)(OC[C@@]1(C#N)O[C@@H](c2ccc3c(N)ncnn23)[C@H](O)[C@@H]1O)Oc1ccccc1)C(=O)OC1CCCCC1` (stereo partly drawn) [Example 229, 5-butyl 1-cyclohexyl ((((2R,3S,4R,5S)-5-(4-aminopyrrolo [2,1-f][1,2,4]triazin-7-yl)-2-cyano-3,4-dihydroxytetrahydrofuran-2-yl)methoxy)(phenoxy)phosphoryl)-L-glutamate], the EC50 in the assay on DENV2 replicon (setting [1]) is 31.4 µM; with RSV A2 (setting [2]) it was above 5 µM; with RSV strain A2 (setting [3]) it was above 13.3 µM; in the assay with HRV16 (setting [4]) it was above 40.2 µM.
As to `C[C@H](NP(=O)(OC[C@@]1(C#N)O[C@@H](c2ccc3c(N)ncnn23)[C@H](O)[C@@H]1O)Oc1ccccc1)C(=O)OC1CCC(F)(F)CC1` (mixture of isomers) [Example 174, 4,4-difluorocyclohexyl ((((2R,3S,4R,5S)-5-(4-aminopyrrolo[2,1-f][1,2,4]triazin-7-yl)-2-cyano-3,4-dihydroxytetrahydrofuran-2-yl)methoxy)(phenoxy)phosphoryl)-L-alaninate], the EC50 in the assay on DENV2 replicon (setting [1]) stood at 33.8 µM; with RSV A2 (setting [2]), 1.39 µM; in the assay with RSV strain A2 (setting [3]), 0.257 µM; with HRV16 (setting [4]), 0.748 µM.
Turning to `CCCOC(=O)C(C)NP(=O)(OCC1(C#N)OC(c2ccc3c(N)ncnn23)C(O)C1O)Oc1ccccc1` (single isomer, unassigned) [Example 46], the EC50 with DENV2 replicon (Huh-7 replicon cells, 48 hours) is above 20.8 µM; with RSV A2, 0.393 µM; in the assay on RSV strain A2 it was 0.082 µM; in the assay with HRV16 (setting [5]), 0.487 µM.
In the case of `C[C@H](NP(=O)(OC[C@@]1(C#N)O[C@@H](c2ccc3c(N)ncnn23)[C@H](O)[C@@H]1O)Oc1ccccc1)C(=O)OC1CCC1` (stereo partly drawn) [Example 118, (2S)-cyclobutyl 2-(((((2R,3S,4R,5S)-5-(4-aminopyrrolo[2,1-f][1,2,4]triazin-7-yl)-2-cyano-3,4-dihydroxytetrahydrofuran-2-yl)methoxy)(phenoxy)phosphoryl)amino)propanoate], the EC50 worked out at 27 µM in the assay with DENV2 replicon (setting [1]), 0.316 µM in the assay on RSV A2 (setting [2]), 0.214 µM in the assay on RSV strain A2 (setting [3]) and 0.424 µM with HRV16 (setting [4]).
For `CC[C@H](N[P@@](=O)(OC[C@@]1(C#N)O[C@@H](c2ccc3c(N)ncnn23)[C@H](O)[C@@H]1O)Oc1ccccc1)C(=O)OC1CCCCC1` [Example 104], the EC50 is above 50 µM with DENV2 replicon (Huh-7 replicon cells, 48 hours); 0.368 µM with RSV A2; 0.79 µM in the assay with RSV strain A2; 1.8 µM in the assay with HRV16 (setting [5]).
